Results on 30 compounds are retold here after patent publication US20160145257A1, “SUBSTITUTED XANTHINES AND METHODS OF USE THEREOF” (Hydra Biosciences, Inc., priority 2013, published 2016).

The assay deals with T1, hTRPC5 (Homo sapiens, UniProt Q9UL62).
T1 construct: expressed in transfected cells; host or cells: HEK293 TREx cells with inducible TRPC5 expression
T1 sequence (Q9UL62 1-973): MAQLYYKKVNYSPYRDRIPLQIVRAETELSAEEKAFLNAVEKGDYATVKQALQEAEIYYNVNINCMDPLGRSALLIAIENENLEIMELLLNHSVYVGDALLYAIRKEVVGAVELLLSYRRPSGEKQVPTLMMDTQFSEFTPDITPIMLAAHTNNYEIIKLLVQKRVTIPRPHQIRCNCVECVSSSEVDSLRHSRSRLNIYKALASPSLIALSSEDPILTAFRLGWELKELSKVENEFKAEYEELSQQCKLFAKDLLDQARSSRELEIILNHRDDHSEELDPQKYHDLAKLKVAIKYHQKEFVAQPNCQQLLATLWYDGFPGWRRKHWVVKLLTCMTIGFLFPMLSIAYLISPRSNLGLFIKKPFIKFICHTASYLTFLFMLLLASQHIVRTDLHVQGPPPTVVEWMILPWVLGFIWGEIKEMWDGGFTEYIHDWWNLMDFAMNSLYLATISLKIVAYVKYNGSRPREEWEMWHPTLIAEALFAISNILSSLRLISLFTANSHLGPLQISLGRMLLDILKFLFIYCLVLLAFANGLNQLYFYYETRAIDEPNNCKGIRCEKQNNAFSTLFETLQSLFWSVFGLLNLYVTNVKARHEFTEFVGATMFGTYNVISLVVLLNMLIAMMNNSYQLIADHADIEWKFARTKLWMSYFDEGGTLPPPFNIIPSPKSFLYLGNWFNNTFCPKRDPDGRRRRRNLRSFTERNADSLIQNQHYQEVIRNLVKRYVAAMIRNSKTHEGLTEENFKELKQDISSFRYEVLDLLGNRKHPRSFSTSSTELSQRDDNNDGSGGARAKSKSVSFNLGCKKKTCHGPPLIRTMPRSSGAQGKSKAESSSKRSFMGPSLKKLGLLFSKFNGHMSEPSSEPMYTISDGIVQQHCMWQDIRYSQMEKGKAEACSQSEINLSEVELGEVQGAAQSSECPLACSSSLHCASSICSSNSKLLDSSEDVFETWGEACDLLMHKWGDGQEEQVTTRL
Briefly: Whole-cell patch clamp, block of LaCl3-activated TRPC5 inward current. Format: cell-based. The following applies: TRPC5-expressing HEK293 TREx cells, 80 μM LaCl3, inward current, IC50 estimated from 5 μM and 500 nM, read-out: hTRPC5 Patch La3+ Inwd (nM) (All Batches). On the procedure: In certain embodiments, exemplary compounds of Formula I and Formula II include the compounds described in Table 1 and in the Examples. A compound described herein may be tested for its ability to block both inward and outward currents through the TRPC5 channel, e.g., by an assay as described in Example 1. For example, IC50 of a compound of Formula I or Formula II was estimated by testing the compound at 5 μM and 500 nM. […] IC50 for a compound of Formula I or Formula II between 500 nM and 5 μM was similarly estimated. As shown, “A” refers to an IC50<100 nM. “B” refers to an IC50 between 100 nM and 500 nM. “C” refers to an IC50 between 500 nM and 1000 nM. “D” refers to an IC50 between 1 μM and 2 μM. “E” refers to an IC50 between 2 μM and 10 μM. “F” refers to […]. “ND” refers to compounds wherein the IC50 was not determined.
Patch clamp experiments permit the detection of currents through the TRPC5 channel in the cell line described above. In normal whole-cell patch clamp recordings, a glass electrode is brought into contact with a single cell and a high-resistance (gigaohm) seal is established with the cell membrane. The membrane is then ruptured to achieve the whole-cell configuration, permitting control of the voltage of the cell membrane and measurement of currents flowing across the membrane using the amplifier attached to the electrode and resulting in the replacement of cytoplasm with the pipette solution. A perfusion system permits control of the extracellular solution, including the addition of blockers and activators of the current. The current can be activated by including 1.4 μM free Ca^2+ in the pipette (intracellular) solution, and 80 μM LaCl3 in the extracellular solution.
TRPC5 cells were induced 20-48 hours, removed from growth plates, and replated at low density (to attain good single-cell physical separation) on glass coverslips for measurement. In some cases, cells were grown in low density overnight on glass coverslips. Patch clamp recordings were made in the whole-cell mode with a holding potential of −40 mV. Every 5 seconds, a voltage ramp was applied from −120 to +100 mV, 400 ms in duration. Currents elicited were quantified at −80 mV and +80 mV. The internal solution consisted of 140 mM cesium aspartate, 10 mM HEDTA, 2 mM CaCl2, 2.27 mM MgCl2 and 10 mM HEPES, pH 7.2, with 1,400 nM calculated free Ca^2+. The external solution consisted of 150 mM NaCl, 4.5 mM KCl, 1 mM MgCl2, 2 mM CaCl2, 10 mM HEPES, 10 mM glucose, 1 mM EGTA, pH 7.4. Upon addition of LaCl3, TRPC5 current was induced only in TRPC5-expressing cells and not in parental HEK293 TREx cells. Removal of the LaCl3 stimulus causes most of the current to go away. Potential blockers were tested for ability to block both inward and outward currents in the continued presence of LaCl3.
IC50 of a compound of Formula I or Formula II was estimated by testing the compound at 5 μM and 500 nM. […] IC50 for a compound of Formula I or Formula II between 500 nM and 5 μM was similarly estimated.
Consider `CCC(=O)CSc1nc2c(c(=O)n(C)c(=O)n2C)n1Cc1cccc(Br)c1` [Compound 1, 7-(3-bromobenzyl)-1,3-dimethyl-8-(2-oxobutylthio)-1H-purine-2,6(3H,7H)-dione], for which the IC50 is 500 to 1000 nM. Consider `Cn1c(=O)c2c(nc(SC(C)(C)C(=O)OC(C)(C)C)n2Cc2cccc(Br)c2)n(C)c1=O` [Compound 3, Tert-butyl 2-(7-(3-bromobenzyl)-1,3-dimethyl-2,6-dioxo-2,3,6,7-tetrahydro-1H-purin-8-ylthio)-2-methylpropanoate], for which the IC50 is 100 to 500 nM. Turning to `CC(O)CSc1nc2c(c(=O)n(C)c(=O)n2C)n1Cc1cccc(Br)c1` (stereo not drawn) [Compound 5], the IC50 was 2000 to 10000 nM.

For the compound `CCOCCSc1nc2c(c(=O)n(C)c(=O)n2C)n1Cc1cccc(Br)c1` [Compound 6, 7-(3-bromobenzyl)-8-(2-ethoxyethylthio)-1,3-dimethyl-1H-purine-2,6(3H,7H)-dione], the IC50 was 100 to 500 nM. With `Cn1c(=O)c2c(nc(SCC#N)n2Cc2cccc(Br)c2)n(C)c1=O` [Compound 7], the IC50 is 2000 to 10000 nM. Regarding `Cn1c(=O)c2c(nc(SCc3ncc[nH]3)n2Cc2cccc(Br)c2)n(C)c1=O` [Compound 8], the IC50 is 2000 to 10000 nM. Take `CCOC(=O)C(C)(C)Sc1nc2c(c(=O)n(C)c(=O)n2C)n1Cc1cccc(Br)c1` [Compound 9, Ethyl 2-(7-(3-bromobenzyl)-1,3-dimethyl-2,6-dioxo-2,3,6,7-tetrahydro-1H-purin-8-ylthio)-2-methylpropanoate]: the IC50 is less than 100 nM. For `Cn1c(=O)c2c(nc(SCc3cccnc3)n2Cc2cccc(Br)c2)n(C)c1=O` [Compound 10, 7-(3-bromobenzyl)-1,3-dimethyl-8-(pyridin-3-ylmethylthio)-1H-purine-2,6(3H,7H)-dione], the IC50 was 2000 to 10000 nM. Turning to `Cn1c(=O)c2c(nc(SCc3ccncc3)n2Cc2cccc(Br)c2)n(C)c1=O` [Compound 11, 7-(3-bromobenzyl)-1,3-dimethyl-8-(pyridin-4-ylmethylthio)-1H-purine-2,6(3H,7H)-dione], the IC50 was 2000 to 10000 nM.

In the case of `Cn1c(=O)c2c(nc(SCc3ccccn3)n2Cc2cccc(Br)c2)n(C)c1=O` [Compound 12, 7-(3-bromobenzyl)-1,3-dimethyl-8-(pyridin-2-ylmethylthio)-1H-purine-2,6(3H,7H)-dione], the IC50 is 500 to 1000 nM. Take `CCCC(=O)CSc1nc2c(c(=O)n(C)c(=O)n2C)n1Cc1cccc(Br)c1` [Compound 13, 7-(3-bromobenzyl)-1,3-dimethyl-8-(2-oxopentylthio)-1H-purine-2,6(3H,7H)-dione]: the IC50 is less than 100 nM. In the case of `CCOCCS(=O)(=O)c1nc2c(c(=O)n(C)c(=O)n2C)n1Cc1cccc(Br)c1` [Compound 14, 7-(3-bromobenzyl)-8-(2-ethoxyethylsulfonyl)-1,3-dimethyl-1H-purine-2,6(3H,7H)-dione], the IC50 is 1000 to 2000 nM. As to `CCOCC[S+]([O-])c1nc2c(c(=O)n(C)c(=O)n2C)n1Cc1cccc(Br)c1` (stereo not drawn) [Compound 15], the IC50 was 2000 to 10000 nM.

Consider `CCOCCSc1nc2c(c(=O)n(C)c(=O)n2C)n1Cc1cccc(Cl)c1` [Compound 16], for which the IC50 is 2000 to 10000 nM.

With `COCCOCCSc1nc2c(c(=O)n(C)c(=O)n2C)n1Cc1cccc(Br)c1` [Compound 17, 7-(3-bromobenzyl)-8-(2-(2-methoxyethoxy)ethylthio)-1,3-dimethyl-1H-purine-2,6(3H,7H)-dione], the IC50 is 100 to 500 nM. As to `CCOCCOc1nc2c(c(=O)n(C)c(=O)n2C)n1Cc1cccc(Br)c1` [Compound 18, 7-(3-bromobenzyl)-8-(2-ethoxyethoxy)-1,3-dimethyl-1H-purine-2,6(3H,7H)-dione], the IC50 is 1000 to 2000 nM. For `COCCCSc1nc2c(c(=O)n(C)c(=O)n2C)n1Cc1cccc(Br)c1` [Compound 19, 7-(3-bromobenzyl)-8-(3-methoxypropylthio)-1,3-dimethyl-1H-purine-2,6(3H,7H)-dione] the value was 100 to 500 nM; for `CCc1coc(CSc2nc3c(c(=O)n(C)c(=O)n3C)n2Cc2cccc(Br)c2)n1` [Compound 20, 7-(3-bromobenzyl)-8-((4-ethyloxazol-2-yl)methylthio)-1,3-dimethyl-1H-purine-2,6(3H,7H)-dione], 100 to 500 nM.

With `CCOCCNc1nc2c(c(=O)n(C)c(=O)n2C)n1Cc1cccc(Br)c1` [Compound 21], the IC50 was 2000 to 10000 nM. Take `CN(C)CCCSc1nc2c(c(=O)n(C)c(=O)n2C)n1Cc1cccc(Br)c1` [Compound 22]: the IC50 is 2000 to 10000 nM. For `CCc1cnc(CSc2nc3c(c(=O)n(C)c(=O)n3C)n2Cc2cccc(Br)c2)o1` [Compound 23], the IC50 was 100 to 500 nM. Regarding `Cc1nc2c(c(=O)n(C)c(=O)n2C)n1Cc1cccc(Br)c1` [Compound 24, 7-(3-bromobenzyl)-1,3,8-trimethyl-1H-purine-2,6(3H,7H)-dione], the IC50 was 2000 to 10000 nM. Regarding `Cn1c(=O)c2c(nc(CC(=O)O)n2Cc2cccc(Br)c2)n(C)c1=O` [Compound 25, 2-(7-(3-bromobenzyl)-1,3-dimethyl-2,6-dioxo-2,3,6,7-tetrahydro-1H-purin-8-yl)acetic acid], the IC50 is 2000 to 10000 nM. As for `CCCOC(=O)Cc1nc2c(c(=O)n(C)c(=O)n2C)n1Cc1cccc(Br)c1` [Compound 26, Propyl-2-(7-(3-bromobenzyl)-1,3-dimethyl-2,6-dioxo-2,3,6,7-tetrahydro-1H-purin-8-yl)-acetate], the IC50 was 2000 to 10000 nM.

In the case of `CCCNC(=O)Cc1nc2c(c(=O)n(C)c(=O)n2C)n1Cc1cccc(Br)c1` [Compound 27, 2-(7-(3-Bromobenzyl)-1,3-dimethyl-2,6-dioxo-2,3,6,7-tetrahydro-1H-purin-8-yl)-N-propylacetamide], the IC50 is 2000 to 10000 nM. With `CCOc1nc2c(c(=O)n(C)c(=O)n2C)n1Cc1cccc(Br)c1` [Compound 28, 7-(3-bromobenzyl)-8-ethoxy-1,3-dimethyl-1H-purine-2,6(3H,7H)-dione], the IC50 is 2000 to 10000 nM. In the case of `CN1CCN(C(=O)Cc2nc3c(c(=O)n(C)c(=O)n3C)n2Cc2cccc(Br)c2)CC1` [Compound 29], the IC50 is 2000 to 10000 nM. On to `C[C@H]1CCCN1c1ncc(-c2cccc(NC(=O)Cc3nc4c(c(=O)n(C)c(=O)n4C)n3Cc3cccc(Br)c3)n2)cn1` [Compound 30], for which the IC50 is 2000 to 10000 nM. For `Cn1c(=O)c2c(nc(/C=C/c3ccccc3)n2Cc2cccc(Br)c2)n(C)c1=O` [Compound 32] the value was 2000 to 10000 nM; for `Cn1c(=O)c2c(nc(CCc3ccccc3)n2Cc2cccc(Br)c2)n(C)c1=O` [Compound 33, 7-(3-bromobenzyl)-1,3-dimethyl-8-phenethyl-1H-purine-2,6(3H,7H)-dione], 500 to 1000 nM.
